Source: patent US11267810B2, “Aminopyrimidine compound and composition comprising same and use thereof” (Shenzhen TargetRx, Inc., priority 2017, dated 2022)
Read-outs that look alike come from different tables or passages of the source.

What was measured:
WT EGFR = WT EGFR (Homo sapiens (Human), UniProt P00533); assay: WT EGFR kinase assay (HTRF Kinase TK kit); type: biochemical
Source text: (§1) WT EGFR (Cana, Cat. No. 08-115), EGFR [L858R] (Carna, Cat. No. 08-502), EGFR [L858R/T790M] (Carna, Cat. No. 08-510), ATP (Sigma, Cat. No. A7699-1G), DMSO (Sigma, Cat. No. D2650), 96-well plate (Corning, Cat. No. 3365), 384-well plate (Greiner, Cat. No. 784076), HTRF Kinase TK Kit (Cisbio, Cat. No. 62TK0PEJ), Erlotinib (Selleckchem, Cat. No. S7787), EGFR [d746-750] (Life Technologies, Cat. No. PV6178), 5× Kinase Buffer A (Life Technologies, Cat. No. PV3186), Kinase Tracer 199 (Life Technologies, Cat. No. PV5830), LanthaScreen® Eu-anti-GST antibody (Life Technologies, Cat. No. PV5594).
(§2) Compound preparation: the test compound was dissolved in DMSO to make a 20 mM stock solution. Then, it was diluted in DMSO with a 3-fold series gradient dilution for 10 times. The dilutions were diluted 10 fold with buffer when dosing.
(§3) WT EGFR and EGFR [L858R/T790M] kinase assay: WT EGFR or EGFR [L858R/T790M] kinase was mixed with different concentrations of pre-diluted compounds for 10 minutes in 5× Kinase Buffer A in duplicate. The corresponding substrate and ATP were added and reacted at room temperature for 20 minutes (in which a negative and a positive control were set: the negative control is blank and the positive control is AZD9291). After the reaction, the detection reagent (the reagent in the HTRF Kinase TK kit) was added, and after incubation at room temperature for 30 minutes, the enzyme activity in the presence of the compounds of the present disclosure at each concentration was measured by an Evnvision microplate reader, and the inhibition of the enzyme by the compound at each concentrations were calculated. The inhibitions of the enzyme activity by the compounds at different concentrations were then fitted using Graphpad 5.0 software according to the four-parameter equation, and the IC50 values were calculated.

EGFR [L858R/T790M] = EGFR [L858R/T790M] (Homo sapiens (Human), UniProt P00533, L858R/T790M); assay: EGFR [L858R/T790M] kinase assay (HTRF Kinase TK kit); type: biochemical
Source text: as §1, §2, §3

[1] = system: Skin cancer cell line A431 (WT); assay: MTS cell viability assay, A431; type: cell-based; settings: Homo sapiens, A-431, 72 hours
Experimental: (§4) Cell line: Skin cancer cell line A431 (purchased from the American Type Culture Collection (ATCC)); lung cancer cells NCI-H1975 (purchased from the American Type Culture Collection (ATCC)) and HCC827 (purchased from the American Type Culture Collection (ATCC)). All of the cells were cultured in RPMI1640 medium containing 10% fetal bovine serum, 100 U/ml penicillin, and 100 μg/ml streptomycin.
(§5) Reagents and materials: RPMI-1640 (GIBCO, Cat. No. A10491-01); fetal bovine serum (GIBCO, Cat. No. 10099141); 0.25% trypsin-EDTA (GIBCO, Cat. No. 25200); penicillin-streptomycin, liquid (GIBCO, Cat. No. 15140-122); DMSO (Sigma, Cat. No. D2650); MTS Test Kit (Promega, Cat. No. G3581), 96-well plate (Corning, Cat. No. 3365).
(§6) Compound preparation: the test compound was dissolved in DMSO to make a 20 mM stock solution and stored at −20° C. It was diluted in DMSO with a 3-fold series gradient dilution for 10 times. The dilutions were diluted 4 fold with cell culture medium.
(§7) MTS cell viability assay: cells in logarithmic growth phase was digested with 0.25% trypsin-EDTA, and 150 μl of the cells was inoculated in 96-well plates at an optimized density. After 24 hours, the compound diluted 4 fold by adding the medium, 50 μl/well (generally 10 Concentrations were selected: 100, 33.3, 11.1, 3.70, 1.23, 0.412, 0.137, 0.0457, 0.0152, 0.00508 μM). A well added with the same volume of 0.5% DMSO was used as a control. After the cells were cultured for further 72 hours, the cell viability was detected with MTS.
(§8) Specific procedure: cells were adhered, the medium was discarded, and a mixture containing 20 μL MTS and 100 μL medium was added to each well. The OD490 was detected after being placed in the incubator for 1-4 hours, and the OD650 value was used as a reference. A dose-effect curve was prepared using GraphPad Prism software and IC50 was calculated.

[2] = system: lung cancer cells HCC827 (Del19); assay: MTS cell viability assay, HCC827; type: cell-based; settings: Homo sapiens, 72 hours
Experimental: as §4, §5, §6, §7, §8

[3] = system: lung cancer cells NCI-H1975 (L858R/T790M); assay: MTS cell viability assay, NCI-H1975; type: cell-based; settings: Homo sapiens, 72 hours
Experimental: as §4, §5, §6, §7, §8

[4] = Pharmacokinetic experiment in rats; type: in vivo, Sprague-Dawley rats; settings: rat; for AUC(0-t) / Cmax / Tmax / half-life / AUC(0-inf) / clearance / MRT inf / Vd / bioavailability: male, Sprague-Dawley, plasma; for AUC(0-inf): read-out: AUCINF—pred; for clearance: read-out: Cl—pred (converted); for MRT inf: read-out: MRTINF—pred; for Vd: read-out: Vz—pred; for bioavailability: PO 10 mg/kg vs IV 0.5 mg/kg
Experimental: Six male Sprague-Dawley rats, 7 to 8 weeks old, weighing approximately 210 g, were divided into 2 groups with 3 rats in each group. The pharmacokinetic differences were compared after administering to the rats a single dose of compounds through vein (in vein 0.5 mg/kg) or mouth (orally 10 mg/kg).
The rats were fed with standard feed, given water, and fasted 16 hours before the experiment. The drugs were dissolved with PEG400 and dimethyl sulfoxide. Orbital blood was collected at the time point of 0.083, 0.25, 0.5, 1, 2, 4, 6, 8, 12 and 24 hours after administration.
The rats were anesthetized for a short time after inhaling ether, and 300 μL of blood sample was collected from the orbit and put into a test tube, which contains 30 μL of 1% heparin salt solution. The test tubes were dried overnight at 60° C. prior to use. After the blood sample collection at the last time point, the rats were killed after the ether anesthesia.
Immediately after the blood sample collection, the test tubes were gently inverted at least 5 times to ensure the fully mixing and placed them on ice. The blood samples were centrifuged at 4° C., 5000 rpm for 5 minutes to separate the plasma from the red blood cells. 100 μL of plasma was pipetted into a clean plastic centrifuge tube, with the name of the compound and time point on it. The plasma was stored at −80° C. before analysis, and LC-MS/MS was used to determine the concentration of the compounds disclosed herein in plasma. Pharmacokinetic parameters were calculated based on the plasma concentrations of each animal at different time points.

EGFR mutant kinase = settings: cited from earlier work

EGFR [L858R/T790M], sequence (P00533 25-1210 T790M/L858R): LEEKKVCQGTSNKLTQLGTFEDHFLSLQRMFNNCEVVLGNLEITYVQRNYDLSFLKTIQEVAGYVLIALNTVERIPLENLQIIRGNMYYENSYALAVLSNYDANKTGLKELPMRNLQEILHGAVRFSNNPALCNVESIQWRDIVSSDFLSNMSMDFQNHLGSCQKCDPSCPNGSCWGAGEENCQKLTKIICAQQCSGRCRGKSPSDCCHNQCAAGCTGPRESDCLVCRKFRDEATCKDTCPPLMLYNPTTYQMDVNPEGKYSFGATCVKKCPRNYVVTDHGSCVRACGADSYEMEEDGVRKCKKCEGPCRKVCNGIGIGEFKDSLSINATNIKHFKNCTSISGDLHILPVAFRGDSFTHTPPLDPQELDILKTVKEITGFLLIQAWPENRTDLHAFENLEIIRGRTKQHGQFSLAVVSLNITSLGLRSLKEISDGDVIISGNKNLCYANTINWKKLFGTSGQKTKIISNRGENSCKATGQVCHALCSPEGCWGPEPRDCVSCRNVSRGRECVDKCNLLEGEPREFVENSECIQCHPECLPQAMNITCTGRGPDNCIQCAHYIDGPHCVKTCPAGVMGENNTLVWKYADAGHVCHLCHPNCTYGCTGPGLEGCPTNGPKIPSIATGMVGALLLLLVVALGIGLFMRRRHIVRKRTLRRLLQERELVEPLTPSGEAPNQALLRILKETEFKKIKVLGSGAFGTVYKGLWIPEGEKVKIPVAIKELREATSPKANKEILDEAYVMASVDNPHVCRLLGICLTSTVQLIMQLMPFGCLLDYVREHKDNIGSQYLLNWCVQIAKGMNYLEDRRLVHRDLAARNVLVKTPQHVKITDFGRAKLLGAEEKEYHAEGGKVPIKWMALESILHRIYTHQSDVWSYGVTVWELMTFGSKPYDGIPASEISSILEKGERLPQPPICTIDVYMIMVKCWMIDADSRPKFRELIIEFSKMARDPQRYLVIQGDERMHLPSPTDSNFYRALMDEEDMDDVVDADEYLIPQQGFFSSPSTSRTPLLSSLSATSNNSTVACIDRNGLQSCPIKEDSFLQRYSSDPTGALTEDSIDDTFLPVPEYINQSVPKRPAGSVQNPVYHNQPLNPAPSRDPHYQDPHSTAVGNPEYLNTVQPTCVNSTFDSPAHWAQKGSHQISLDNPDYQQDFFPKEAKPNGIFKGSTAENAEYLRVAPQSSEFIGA
WT EGFR, sequence (P00533 25-1210): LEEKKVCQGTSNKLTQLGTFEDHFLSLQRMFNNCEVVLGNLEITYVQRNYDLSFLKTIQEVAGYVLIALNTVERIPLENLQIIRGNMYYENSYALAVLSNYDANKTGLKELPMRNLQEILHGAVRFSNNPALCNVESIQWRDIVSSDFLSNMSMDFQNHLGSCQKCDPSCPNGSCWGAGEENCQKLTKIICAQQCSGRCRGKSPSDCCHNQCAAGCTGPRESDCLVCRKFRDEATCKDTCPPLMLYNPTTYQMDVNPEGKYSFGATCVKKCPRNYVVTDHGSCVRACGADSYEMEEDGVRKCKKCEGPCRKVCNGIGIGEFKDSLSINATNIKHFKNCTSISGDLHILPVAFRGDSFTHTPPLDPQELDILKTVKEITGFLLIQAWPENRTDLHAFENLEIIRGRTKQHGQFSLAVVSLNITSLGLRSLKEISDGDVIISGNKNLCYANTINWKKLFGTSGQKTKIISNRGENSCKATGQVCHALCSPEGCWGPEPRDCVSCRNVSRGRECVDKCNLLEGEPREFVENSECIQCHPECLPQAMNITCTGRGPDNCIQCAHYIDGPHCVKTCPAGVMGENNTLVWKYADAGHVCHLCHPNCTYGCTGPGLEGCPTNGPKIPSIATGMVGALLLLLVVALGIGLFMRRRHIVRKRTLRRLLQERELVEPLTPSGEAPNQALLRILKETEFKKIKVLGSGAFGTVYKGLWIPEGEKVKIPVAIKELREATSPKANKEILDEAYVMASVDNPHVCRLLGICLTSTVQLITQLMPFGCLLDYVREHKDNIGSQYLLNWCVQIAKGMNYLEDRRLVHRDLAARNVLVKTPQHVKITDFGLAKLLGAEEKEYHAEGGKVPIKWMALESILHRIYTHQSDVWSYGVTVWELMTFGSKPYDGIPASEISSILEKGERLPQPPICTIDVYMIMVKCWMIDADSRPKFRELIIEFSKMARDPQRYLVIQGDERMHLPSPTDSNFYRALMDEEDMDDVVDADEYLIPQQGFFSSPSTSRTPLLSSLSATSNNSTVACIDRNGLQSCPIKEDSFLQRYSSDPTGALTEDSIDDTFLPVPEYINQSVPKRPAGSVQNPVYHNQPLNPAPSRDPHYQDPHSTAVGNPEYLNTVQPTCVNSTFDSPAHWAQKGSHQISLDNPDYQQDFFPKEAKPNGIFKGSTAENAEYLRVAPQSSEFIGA

| SMILES | IC50 (WT EGFR) [nM] | IC50 (EGFR [L858R/T790M]) [nM] | IC50 [1] [nM] | IC50 [2] [nM] | IC50 [3] [nM] | AUC(0-t) ([4]; IV 0.5 mg/kg single dose) [ng·h/mL] | Cmax ([4]; IV 0.5 mg/kg single dose) [ng/mL] | Tmax ([4]; IV 0.5 mg/kg single dose) [min] | half-life ([4]; IV 0.5 mg/kg single dose) [min] | AUC(0-inf) ([4]; IV 0.5 mg/kg single dose) [ng·h/mL] | clearance ([4]; IV 0.5 mg/kg single dose) [mL/min/kg] | MRT inf ([4]; IV 0.5 mg/kg single dose) [h] | Vd ([4]; IV 0.5 mg/kg single dose) [L/kg] | AUC(0-t) ([4]; PO 10 mg/kg single dose) [ng·h/mL] | Cmax ([4]; PO 10 mg/kg single dose) [ng/mL] | Tmax ([4]; PO 10 mg/kg single dose) [min] | half-life ([4]; PO 10 mg/kg single dose) [min] | AUC(0-inf) ([4]; PO 10 mg/kg single dose) [ng·h/mL] | MRT inf ([4]; PO 10 mg/kg single dose) [h] | bioavailability [4] [%] | further results |
| --- | --- | --- | --- | --- | --- | --- | --- | --- | --- | --- | --- | --- | --- | --- | --- | --- | --- | --- | --- | --- | --- |
| C=CC(=O)Nc1cc(Nc2nccc(-n3cc(CN(C)C)c(-c4ccccc4)n3)n2)c(OC)cc1N1CCOCC1 [Compound T-0, reference compound] | < 2 | < 0.3 | 200 to 450 | 4.2 | 4.7 | 477 | 323 | 4.8 | 227 | 498 | 17.5 | 2.95 | 5.73 | 1600 | 115 | 79.8 | 453 | 1800 | 9.19 | 16.7 | Cl—pred ([4]; PO 10 mg/kg single dose): 5.65 L/h/kg; Vz—pred ([4]; PO 10 mg/kg single dose): 61.56 L/kg; inhibitory activity against EGFR mutant kinase (in words) (EGFR mutant kinase): significant inhibitory activity |
| [2H]c1c(C([2H])([2H])N(C)C)c(-c2ccccc2)nn1-c1ccnc(Nc2cc(NC(=O)C=C)c(N3CCOCC3)cc2OC)n1 [Compound T-1, N-(5-((4-(4-((dimethylamino)methyl-d2)-3-phenyl-1H-pyrazol-1-yl-5-d)pyrimidin-2-yl)amino)-4-methoxy-2-morpholinophenyl)acrylamide] | < 2 | < 0.3 | 200 to 450 | 1.56 | 3.62 |  |  |  |  |  |  |  |  |  |  |  |  |  |  |  |  |
| [2H]c1c([2H])c([2H])c(-c2nn(-c3ccnc(Nc4cc(NC(=O)C=C)c(N5CCOCC5)cc4OC)n3)cc2CN(C)C)c([2H])c1[2H] [Compound T-2, N-(5-((4-(4-((dimethylamino)methyl)-3-(phenyl-d5)-1H-pyrazol-1-yl)pyrimidin-2-yl)amino)-4-methoxy-2-morpholinophenyl)acrylamide] | < 2 | < 0.3 | 200 to 450 | 1.98 | 3.57 |  |  |  |  |  |  |  |  |  |  |  |  |  |  |  |  |
| [2H]C([2H])([2H])Oc1cc(N2CCOCC2)c(NC(=O)C=C)cc1Nc1nccc(-n2cc(CN(C)C)c(-c3ccccc3)n2)n1 [Compound T-3, N-(5-((4-(4-((dimethylamino)methyl)-3-phenyl-1H-pyrazol-1-yl)pyrimidin-2-yl)amino)-4-(methoxy-d3)-2-morpholinophenyl)acrylamide] | < 2 | < 0.3 | 200 to 450 | 2.27 | 4.53 | 436 | 299 | 4.8 | 214 | 456 | 18.5 | 3.34 | 5.71 | 1650 | 120 | 240 | 449 | 1920 | 8.67 | 18.9 | Cl—pred ([4]; PO 10 mg/kg single dose): 5.28 L/h/kg; Vz—pred ([4]; PO 10 mg/kg single dose): 56.99 L/kg; Cmax, AUClast and oral availability (F %) compared with compound T-0 (in words) ([4]; orally): better metabolic parameters |
| [2H]C([2H])([2H])N(Cc1cn(-c2ccnc(Nc3cc(NC(=O)C=C)c(N4CCOCC4)cc3OC)n2)nc1-c1ccccc1)C([2H])([2H])[2H] [Compound T-4, N-(5-((4-(4-((bis(methyl-d3)amino)methyl)-3-phenyl-1H-pyrazol-1-yl)pyrimidin-2-yl)amino)-4-methoxy-2-morpholinophenyl)acrylamide] | < 2 | < 0.3 | 200 to 450 | 2.5 | 5.02 |  |  |  |  |  |  |  |  |  |  |  |  |  |  |  |  |
| [2H]c1c([2H])c([2H])c(-c2nn(-c3ccnc(Nc4cc(NC(=O)C=C)c(N5CCOCC5)cc4OC)n3)cc2CN(C([2H])([2H])[2H])C([2H])([2H])[2H])c([2H])c1[2H] [Compound T-6, N-(5-((4-(4-((bis(methyl-d3)amino)methyl)-3-(phenyl-d5)-1H-pyrazol-1-yl)pyrimidin-2-yl)amino)-4-methoxy-2-morpholinophenyl)acrylamide] | < 2 | < 0.3 | 200 to 450 | 2 | 4.23 |  |  |  |  |  |  |  |  |  |  |  |  |  |  |  |  |
